Measurements reported in patent publication US10023484B2, “Use of peracetic acid/hydrogen peroxide and peroxide-reducing agents for treatment of drilling fluids, frac fluids, flowback water and disposal water” (Ecolab USA Inc., priority 2012, dated 2018).

Assays:
fracking water mixtures [1] = test: Micro efficacy baseline in fracking water mixtures without catalase (Example 3); format: cell-based
Procedure: The impact of water pretreatment with 500 ppm of the EnviroSan product (75 ppm POAA) on micro efficacy in various fracking water mixtures were evaluated. The example represents a baseline data set of various water treatment options according to the invention. Table 2 and FIG. 3 show the average log reduction in various slick water treatments with varying ppm PAA (without any catalase treatment or pretreatment), representing a baseline data set.

[2] = Effect of catalase and treatment sequence on peracid stability in 80/20 water blends (Example 10); format: physicochemical; conditions: theoretical initial POAA 82 ppm
Text: The effect of catalase on the peracid stability within treated waters was further evaluated. Water blends of 80/20 (80% fresh water/20% produced water) were employed to analyze the impact on various treatment sequences set forth in Table 14.
Due to the efficacious results shown in FIG. 15, the same methods were used to further evaluate a pretreatment using a lower concentration of the catalase as shown in Table 15.

fracking water mixtures [3] = test: Micro efficacy: POAA dosed for 30 ppm residual versus POAA pretreated with catalase (Example 8); format: cell-based
Procedure: A micro efficacy comparison of POAA added at levels to target 30 ppm POAA residuals at 5 minutes versus POAA pretreated with catalase was conducted as set forth in Table 12.

[4] = system: Pseudomonas aeruginosa ATCC 15442; test: Micro efficacy at 30 ppm POAA EnviroSan with/without catalase, with/without water pretreatment (Example 7); format: cell-based; conditions: no pretreatment, 30 ppm PAA
Procedure: Additional micro efficacy performance was evaluated to confirm the improved micro efficacy observed in Example 6 when using increasing amounts of produced water with the dosing static initial concentrations of POAA (30 ppm or 40 ppm) with catalase. Improved micro efficacy with increased amounts of produced water present in a mixture is a highly counterintuitive result and was unexpected. Under normal conditions, it would be expected to have decreased micro efficacy as the amount of produced water (e.g. recycled) increases and the amount of POAA remains static as a result of the increased contamination found in produced water as opposed to fresh water sources. As a result, subsequent evaluation observed the activity of the water itself against a spiked culture of P. aeruginosa over a 1 hour exposure period to determine whether the produced water itself has an antimicrobial present.
All water mixtures were treated with an initial concentration of 30 ppm POAA EnviroSan, both with and without the addition of catalase. The data set evaluates whether there is a significant difference in micro activity generated between treatments of EnviroSan alone vs. EnviroSan pre-reduced with catalase.
All ratios of fracking water mixtures tested (100/0, 90/10, 80/20 & 70/30) were freshly mixed solutions, as well as solutions mixed and pretreated with 500 ppm EnviroSan product more than 1 hour before the start of the micro evaluation, in order to observe if a pretreatment step is of value for micro performance compared to those mixtures not pretreated. The test system (P. aeruginosa and natural water) described in Example 5 was again utilized. Water mixtures as outlined in Table 9 were provided (showing the percentage of 100 mL of each water sample type).
The testing methods of Example 5 were utilized for the chemically treated water samples, differing only in the combination of the 10 mL inoculated water mixtures with appropriate volumes of the EnviroSan with or without catalase to achieve 30 ppm POAA residual to each test tube in timed intervals and mixed. The methods of Example 5 were employed to make the EnviroSan with catalase stock solutions. In comparison, for the water samples that were not chemically treated, 9.9 mL of test water mixture was dispensed into 2 individual test tubes. 0.10 mL of an approximate 10^8 CFU/mL culture of P. aeruginosa was added in timed intervals and mixed thoroughly. Then 1 mL samples were neutralized in 9 mL of 0.5% sodium thiosulfate, followed by serial dilution and enumeration after 2.5 minutes, 5 minutes and 60 minute exposure times.
In addition, data for enumeration of water samples for antimicrobial activity against P. aeruginosa over 60 minutes exposure are also summarized in Table 10.

[5] = Titration of POAA consumption in water mixtures (Example 6); format: physicochemical; conditions: 1 minute
[6] = Pretreated, catalase CA 400 5.8 ppm
[7] = Simult. Add, catalase CA 400 10 ppm
[8] = Simult. Add, catalase CA 400 100 ppm

SMILES: CC(=O)OO [POAA, peracetic acid]
- Avg. Log10 Reduction (fracking water mixtures [1]; 75 ppm PAA pretreatment, 10% reuse H2O, 29 ppm POAA, NO catalase, 2.5 minutes): 6.45
- Avg. Log10 Reduction (fracking water mixtures [1]; 75 ppm PAA pretreatment, 10% reuse H2O, 29 ppm POAA, NO catalase, 5 minutes): 6.71
- Avg. Log10 Reduction (fracking water mixtures [1]; 75 ppm PAA pretreatment, 20% reuse H2O, 47 ppm PAA, NO catalase, 2.5 minutes): 6.42
- Avg. Log10 Reduction (fracking water mixtures [1]; 75 ppm PAA pretreatment, 20% reuse H2O, 47 ppm PAA, NO catalase, 5 minutes): 6.55
- Avg. Log10 Reduction (fracking water mixtures [1]; 75 ppm PAA pretreatment, 30% reuse H2O, 86 ppm POAA, NO catalase, 2.5 minutes): 6.47
- Avg. Log10 Reduction (fracking water mixtures [1]; 75 ppm PAA pretreatment, 30% reuse H2O, 86 ppm POAA, NO catalase, 5 minutes): 6.41
- Avg. Log10 Reduction (fracking water mixtures [1]; no holding tank pretreatment, 0% reuse H2O, 22 ppm POAA, 2.5 minutes): 5.53
- Avg. Log10 Reduction (fracking water mixtures [1]; no holding tank pretreatment, 0% reuse H2O, 22 ppm POAA, 5 minutes): 5.75
- Avg. Log10 Reduction (fracking water mixtures [1]; no pretreatment, 10% reuse H2O, 36 ppm POAA, 2.5 minutes): 4.32
- Avg. Log10 Reduction (fracking water mixtures [1]; no pretreatment, 10% reuse H2O, 36 ppm POAA, 5 minutes): 4.72
- Avg. Log10 Reduction (fracking water mixtures [1]; no pretreatment, 20% reuse H2O, 86 ppm POAA, 2.5 minutes): 4.57
- Avg. Log10 Reduction (fracking water mixtures [1]; no pretreatment, 20% reuse H2O, 86 ppm POAA, 5 minutes): 4.64
- Avg. Log10 Reduction (fracking water mixtures [1]; no pretreatment, 30% reuse H2O, 138 ppm POAA, 2.5 minutes): 4.12
- Avg. Log10 Reduction (fracking water mixtures [1]; no pretreatment, 30% reuse H2O, 138 ppm POAA, 5 minutes): 5.00
- POAA Meas'd. at 1 min. ([2]; NA, catalase 0 ppm): 56 ppm
- POAA Meas'd. at 4 min. ([2]; NA, catalase 0 ppm): 31 ppm
- POAA Meas'd. at 5 min. ([2]; NA, catalase 0 ppm): 23 ppm
- POAA Meas'd. at 6 min. ([2]; NA, catalase 0 ppm): 17 ppm
- POAA Meas'd. at 1 min. [2, 6]: 76 ppm
- POAA Meas'd. at 4 min. [2, 6]: 75 ppm
- POAA Meas'd. at 5 min. [2, 6]: 75 ppm
- POAA Meas'd. at 6 min. [2, 6]: 75 ppm
- POAA Meas'd. at 1 min. [2, 7]: 63 ppm
- POAA Meas'd. at 4 min. [2, 7]: 34 ppm
- POAA Meas'd. at 5 min. [2, 7]: 31 ppm
- POAA Meas'd. at 6 min. [2, 7]: 26 ppm
- POAA Meas'd. at 1 min. [2, 8]: 66 ppm
- POAA Meas'd. at 4 min. [2, 8]: 61 ppm
- POAA Meas'd. at 5 min. [2, 8]: 65 ppm
- POAA Meas'd. at 6 min. [2, 8]: 58 ppm
- Avg. Log10 Reduction (fracking water mixtures [3]; 10% reuse H2O, 30 ppm PAA, Catalase, 2.5 minutes): 5.29
- Avg. Log10 Reduction (fracking water mixtures [3]; 10% reuse H2O, 30 ppm PAA, Catalase, 5 minutes): 5.96
- Avg. Log10 Reduction (fracking water mixtures [3]; 10% reuse H2O, 46 ppm PAA, NO Catalase, 2.5 minutes): 4.32
- Avg. Log10 Reduction (fracking water mixtures [3]; 10% reuse H2O, 46 ppm PAA, NO Catalase, 5 minutes): 4.72
- Avg. Log10 Reduction (fracking water mixtures [3]; 20% reuse H2O, 30 ppm PAA, Catalase, 2.5 minutes): 5.73
- Avg. Log10 Reduction (fracking water mixtures [3]; 20% reuse H2O, 30 ppm PAA, Catalase, 5 minutes): 6.36
- Avg. Log10 Reduction (fracking water mixtures [3]; 20% reuse H2O, 86 ppm PAA, NO Catalase, 2.5 minutes): 4.57
- Avg. Log10 Reduction (fracking water mixtures [3]; 20% reuse H2O, 86 ppm PAA, NO Catalase, 5 minutes): 4.64
- Avg. Log10 Reduction (fracking water mixtures [3]; 30% reuse H2O, 30 ppm PAA, Catalase, 2.5 minutes): 5.30
- Avg. Log10 Reduction (fracking water mixtures [3]; 30% reuse H2O, 30 ppm PAA, Catalase, 5 minutes): 5.98
- Avg. Log10 Reduction (fracking water mixtures [3]; 30% reuse H2O, 138 ppm PAA, NO Catalase, 2.5 minutes): 4.12
- Avg. Log10 Reduction (fracking water mixtures [3]; 30% reuse H2O, 138 ppm PAA, NO Catalase, 5 minutes): 5.00
- Avg. Log10 Reduction ([4]; 0% reuse H2O, Catalase, 2.5 minutes): 4.62
- Avg. Log10 Reduction ([4]; 0% reuse H2O, Catalase, 5 minutes): 6.22
- Avg. Log10 Reduction ([4]; 0% reuse H2O, NO Catalase, 2.5 minutes): 4.64
- Avg. Log10 Reduction ([4]; 0% reuse H2O, NO Catalase, 5 minutes): 6.32
- Avg. Log10 Reduction ([4]; 10% reuse H2O, Catalase, 2.5 minutes): 5.29
- Avg. Log10 Reduction ([4]; 10% reuse H2O, Catalase, 5 minutes): 5.96
- Avg. Log10 Reduction ([4]; 10% reuse H2O, NO Catalase, 2.5 minutes): 3.09
- Avg. Log10 Reduction ([4]; 10% reuse H2O, NO Catalase, 5 minutes): 3.91
- Avg. Log10 Reduction ([4]; 20% reuse H2O, Catalase, 2.5 minutes): 5.73
- Avg. Log10 Reduction ([4]; 20% reuse H2O, Catalase, 5 minutes): 6.36
- Avg. Log10 Reduction ([4]; 20% reuse H2O, NO Catalase, 2.5 minutes): 2.19
- Avg. Log10 Reduction ([4]; 20% reuse H2O, NO Catalase, 5 minutes): 2.38
- Avg. Log10 Reduction ([4]; 30% reuse H2O, Catalase, 2.5 minutes): 5.30
- Avg. Log10 Reduction ([4]; 30% reuse H2O, Catalase, 5 minutes): 5.98
- Avg. Log10 Reduction ([4]; 30% reuse H2O, NO Catalase, 2.5 minutes): 1.88
- Avg. Log10 Reduction ([4]; 30% reuse H2O, NO Catalase, 5 minutes): 1.93
- Actual Titrated Concentration (ppm POAA) ([5]; 70% Fresh/30% Produced, desired 30 ppm POAA): 7 ppm
- Actual Titrated Concentration (ppm POAA) ([5]; 70% Fresh/30% Produced, desired 40 ppm POAA): 12 ppm
- Actual Titrated Concentration (ppm POAA) ([5]; 80% Fresh/20% Produced, desired 30 ppm POAA): 13 ppm
- Actual Titrated Concentration (ppm POAA) ([5]; 80% Fresh/20% Produced, desired 40 ppm POAA): 21 ppm
- Actual Titrated Concentration (ppm POAA) ([5]; 90% Fresh/10% Produced, desired 30 ppm POAA): 21 ppm
- Actual Titrated Concentration (ppm POAA) ([5]; 90% Fresh/10% Produced, desired 40 ppm POAA): 30 ppm
